The text below walks through data of PubChem BioAssay (NCI).

What all share (test): growth of human tumour cells (NCI), 48 h
In test [1] the test system is CAKI-1 renal.
Test [2] concerns HCC-2998 colon.
Test [3] has as its system HL-60(TB) leukemia.
The test system of test [4] is HOP-92 NSCLC.
For test [5], the system named is K-562 leukemia.
Test [6] deals with KM12 colon.
Test [7] concerns RXF 393 renal.
Test [8] relates to SF-268 CNS.
For test [9], the system named is SK-OV-3 ovarian.
The test system of test [10] is TK-10 renal.

Molecules are shown by their SMILES. Several values for one entry are separate records, joined by “and”; a condition that tells them apart may be missing. Equal entries are not always repeated.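 48-hour exposure; five concentrations; linearly interpolated endpoints. GI50 = concentration required for 50% inhibition of growth. TGI: total growth inhibition.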 A value given as a limit tells only on which side of the number the result lay.

Regarding `O=C(c1ccccc1)C(CN1CCCCC1)c1ccccc1` (stereo not drawn), the GI50 in test [1] was 1.08 µM; in test [2], 3.97 µM; in test [3] it was 1.42 µM; in test [4] it was 1.16 µM; in [5] it was 0.712 µM; in test [6], 3.75 µM. Moreover, the GI50 was 1.42 µM in test [7], 3.98 µM in test [8], 7.27 µM in test [9] and 2.92 µM in test [10]. In addition, the TGI turned out to be 2.45 µM in test [1]; 12.3 µM in [2]; 3.86 µM in [3]; 3.88 µM in test [4]; 14.2 µM in test [5]; 13.8 µM in [6]. The TGI in [7] is 2.74 µM; in test [8] it was 16.1 µM; in test [9], 24.8 µM; in test [10], 10.2 µM.
With `Cc1nc(-c2cn3c(n2)-c2ccc(-c4cnn(C(C)(C)C(N)=O)c4)cc2OCC3)n(C(C)C)n1`, the GI50 was 1 µM and 1.2 µM in [1]; 0.895 µM and 0.295 µM in test [2]; < 0.0202 µM and 0.00955 µM in [3]; 0.0211 µM and 0.0253 µM in test [4]; 8.86 µM in [5]; 3.48 µM and 3 µM in test [6]. Besides, the GI50 was 0.537 µM and 0.727 µM in [7]; 3.7 µM and 2.29 µM in [8]; < 0.0126 µM and 0.0162 µM in test [9]; 0.0722 µM and 0.0489 µM in [10]. Besides, the TGI was over 100 µM in test [1]; 17.2 µM and > 10 µM in test [2]; 25.8 µM and > 10 µM in [3]; over 75.7 µM in test [5]; 17.2 µM and > 10 µM in test [6]; 4.61 µM and > 7.26 µM in [7]. For the same molecule, the TGI is over 100 µM in [8]; 0.137 µM in test [9]; 32.1 µM and > 10 µM in test [10].
Consider `C=CC(=O)Nc1cc(C)ccc1Nc1nc(Nc2cc(OC)ncc2C)ncc1C(F)(F)F`, for which the GI50 in test [1] was 0.514 µM; in test [2], 0.261 µM; in test [3] it was 0.637 µM; in [4], 0.188 µM; in test [5] it was 2.56 µM; in test [6] it was 1.13 µM. Moreover, the GI50 in [7] was 0.352 µM; in [8], 1.28 µM; in test [9] it was 4.09 µM; in test [10] it was 0.416 µM. Besides, the TGI was 1.84 µM in test [1]; 4.34 µM in test [2]; 3.7 µM in test [3]; 0.981 µM in test [4]; over 100 µM in test [5]; over 58.1 µM in [6]. Further, the TGI in [7] was 1.85 µM; in test [8], over 100 µM; in test [9] it was over 100 µM; in test [10] it was over 100 µM.
In the case of `Oc1ccc2ccccc2c1N=Nc1ccsc1`, the TGI in [1], in [2], in test [3], in test [4], in [5] and in test [6] was over 100 µM in each case. The TGI in [7], in test [8], in [9] and in test [10] was over 100 µM throughout.
With `COc1cccc(NC(=O)c2sc3nc(C)c(C(O)c4ccccc4)cc3c2N)c1` (stereo not drawn), the GI50 in test [1] is 0.347 µM; in test [2] it was 0.359 µM; in test [3] it was 0.231 µM; in test [4], 4.21 µM; in test [5], 0.117 µM; in [6], 0.337 µM. Besides, the GI50 in test [7] is 0.226 µM; in [8], 1.05 µM; in [9] it was 0.658 µM; in test [10] it was 2.03 µM. The TGI in test [1] was 18 µM; in test [2], 4.05 µM; in test [3] it was 0.742 µM; in test [4], 26.9 µM; in [5], over 100 µM; in test [6], 11.8 µM. Moreover, the TGI in test [7] is 2.75 µM; in [8], 30.9 µM; in test [9], 23.8 µM; in [10], 65.1 µM.
Regarding `CC(C)=CCC/C(C)=C/CC/C(C)=C/CSc1ccccc1C(=O)O`, the GI50 was 28.1 µM in test [1]; 28.9 µM in test [2]; 18.6 µM in test [3]; 19.3 µM in [4]; 26.2 µM in [5]; 22.2 µM in test [7]. For the same molecule, the results for the GI50 in test [8], in [9] and in [10] were 18.5 µM, 37.6 µM and 36.4 µM, respectively. Further, the TGI in test [1] is 71.6 µM and 38.3 µM; in [2], 92.4 µM and 33.6 µM; in test [3], 41.4 µM and 67.1 µM; in [4] it was 57.1 µM and 59.7 µM; in test [5], over 100 µM; in test [6], 35.8 µM and 33.5 µM. In addition, the TGI in test [7] is 52.3 µM and 56 µM; in [8], 35.7 µM and 32.6 µM; in test [9], > 100 µM and 62.8 µM; in test [10], > 92.3 µM and 99.1 µM.
Turning to `Cn1cnc([N+](=O)[O-])c1Sc1nc(N)nc2c1ncn2C1CC(O)C(CO)O1` (stereo not drawn), the TGI in [1] was over 100 µM; in test [2], over 100 µM; in test [3] it was over 47.1 µM; in test [4], over 100 µM; in [5], over 100 µM; in test [6] it was 12.1 µM. The TGI is over 100 µM in [7], over 100 µM in test [8], over 79.1 µM in test [9] and over 100 µM in test [10].
For the molecule `CC(=O)OC[C@@H](COC(=O)/C=C/c1ccc(O)cc1)OC1OC(CO)C(O)C(O)C1O` (stereo partly drawn), the TGI in [1], in test [2], in test [3], in test [4], in [5] and in test [6] was over 100 µM each time. In addition, the TGI in test [7], in test [8], in test [9] and in test [10] was over 100 µM in each case.
Take `COc1cc(-c2cc(O)c(-c3ccc4ccccc4n3)c(=O)[nH]2)cc(OC)c1OC`: the TGI in test [1] is over 87.9 µM; in test [2], over 100 µM; in test [3], 35.3 µM; in test [4], over 81.6 µM; in [5] it was over 32.1 µM; in test [6], over 100 µM. Moreover, the TGI in test [7] is over 82.8 µM; in [8], over 80.5 µM; in test [9], over 73.2 µM; in [10], over 100 µM.
